Laboratory results from ChEMBL document CHEMBL4706623, “GPR52 Antagonist Reduces Huntingtin Levels and Ameliorates Huntington's Disease-Related Phenotypes” (J Med Chem, 2021).

Molecular target: G-protein coupled receptor 52 (Homo sapiens, UniProt Q9Y2T5)
Experiment: Antagonist activity at GPR52 (unknown origin) expressed in HEK293 cells assessed as inhibition of WO459-induced cAMP accumulation preincubated for 15 mins followed by WO459 addition and measured after 30 mins by LANCE Ultra cAMP kit based microplate reader analysis; call rule not given here
Type: functional, cell-based

G-protein coupled receptor 52, sequence (Q9Y2T5 whole entry): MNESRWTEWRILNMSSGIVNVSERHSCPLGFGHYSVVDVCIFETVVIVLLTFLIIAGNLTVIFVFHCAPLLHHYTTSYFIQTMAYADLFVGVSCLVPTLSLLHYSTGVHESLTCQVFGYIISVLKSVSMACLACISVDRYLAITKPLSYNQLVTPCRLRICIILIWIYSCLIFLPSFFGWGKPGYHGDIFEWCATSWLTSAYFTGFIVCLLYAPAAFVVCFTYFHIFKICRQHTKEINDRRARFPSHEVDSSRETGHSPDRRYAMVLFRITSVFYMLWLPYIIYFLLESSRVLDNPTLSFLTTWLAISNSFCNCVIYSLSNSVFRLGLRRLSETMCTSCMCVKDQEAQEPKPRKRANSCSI

An IC50 (read-out: IC50) of 1.52 µM was found for `O=C(/C=C/CCc1ccccc1)c1ccoc1` in this work.

An IC50 (read-out: IC50) of 2.82 µM was found for `Cc1cccc(C)c1C(=O)/C=C/CCc1ccccc1` in this work.

With `CC/C=C/C(=O)c1ccccc1` the IC50 (hek293) was “Not Active”.
